Measured values taken from patent US5948780A, “Method for treating and preventing heart failure and ventricular dilatation” (priority 1997, dated 1999).

Experiments:
[1] = system: catalytic domain of stromelysin; assay: plasma MMP inhibitory activity (thiopeptolide hydrolysis), stromelysin; assay type: biochemical; conditions: plasma after 10 mg/kg oral administration
Experimental: The MMP inhibitor chosen for these studies was Compound A as above. A single oral dose of 10 mg/kg of Compound A was administered in one pig, and a second pig was simultaneously administered a single 10 mg/kg dose of the MMP inhibitor intravenously. Plasma samples were serially collected from the chronically placed arterial access ports. Plasma levels of the MMP inhibitor were determined by the degree of hydrolysis of the MMP substrate thiopeptolide Ac-Pro-Leu-Gly-thioester-Leu-Leu-Gly=OEt. […] A pharmacokinetic profile was constructed using these initial data, and it was predicted that an oral delivery of 20 mg/kg/day of Compound A would provide significant MMP plasma inhibitory activity at trough levels. Accordingly, the 3 pigs underwent 20 mg/kg QD-AM of treatment with Compound A for 5 days. In order to confirm adequate MMP inhibitory activity, plasma was collected prior to the AM dose with each day of treatment. […] Thus, a practical dosing regiment of Compound A was established which provided stable plasma MMP inhibitory activity in the animal model to be used in the present study.

[2] = system: chronic rapid pacing heart failure model; assay: LV geometry, LV function and systemic hemodynamics with chronic rapid pacing (Table III); assay type: in vivo, pig; conditions: Rapid Pacing + MMPi, 20 mg/kg QD, 3 weeks, mean ± SEM
Excerpt: Pacemakers were implanted or sham procedures performed with the animals anesthetized as described in the preceding section. In addition to the placement of the aortic access port, a shielded stimulating electrode was sutured onto the left atrium, connected to a modified programmable pacemaker (8329, Medtronic, Inc., Minneapolis, Minn.), and buried in a subcutaneous pocket. The pericardium was approximated, the thoracotomy closed, and the pleural space evacuated of air. Ten to 14 days following recovery from the surgical procedure, baseline studies were performed, and the protocols described above were begun. Cardiac auscultation and an electrocardiogram were performed frequently during the pacing protocol in order to ensure proper operation of the pacemaker and the presence of 1:1 conduction. In this porcine preparation, atrio-ventricular conduction can be maintained at this pacing rate and therefore provide a homogeneous pattern of ventricular myocardial electrical activation. The sham operated controls were cared for in identical fashion with the exception of the pacing protocol. All animals were treated and cared for in accordance with the National Institutes of Health "Guide for the Care and Use of Laboratory Animals" (National Research Council, Washington, 1996).
LV size and function were measured at weekly intervals in all of the pigs undergoing rapid pacing. For these studies, the animals were brought to the laboratory and the pacemaker deactivated. All measurements were performed at an ambient resting heart rate within 30 to 40 minutes following pacemaker deactivation. Two-dimensional and M-mode echocardiographic studies (ATL Ultramark VI, 2.25 MHz transducer, Bothell, Wash.) were used to image the LV from a right parasternal approach. LV fractional shortening was calculated as ([…])/end-diastolic dimension and was expressed as a percent. Peak circumferential global average wall stress was computed using a spherical model of reference: σ(gm/cm^2)=(PD/4h(1+h/D))×1.36; where P=aortic systolic pressure measured from the access port, D=minor axis dimension at end-diastole, and h=wall thickness. The mean velocity of circumferential fiber shortening (Vcf) was calculated using the LV echocardiographic dimension measurements and the arterial pressure trace. The LV ejection time, used in the calculation of Vcf, was rate-corrected to a heart rate of 60 bpm by […] by the square root of the RR interval.

isolated LV myocytes = assay: isolated myocyte contractile function with pacing induced congestive heart failure (Table IV); conditions: Rapid Pacing + MMPi, 20 mg/kg QD
Experimental: Following completion of the 21-day protocol, a final set of LV function measurements were performed and plasma collected. Following steady-state LV function measurements, 35 cc of blood was drawn from the arterial access port into chilled tubes containing EDTA (1.5 mg/mL). The blood samples were immediately centrifuged (2000 g, 10 min, 4° C.), the plasma decanted into separate tubes, frozen in a dry ice/methanol bath, and stored at -80° C. until the time of assay. The animals were then anesthetized as described in the preceding section, a sternotomy performed, and the heart quickly extirpated and placed in a phosphate buffered ice slush. The great vessels, atria, and right ventricle were carefully trimmed away, and the LV weighed. The region of the LV free wall incorporating the circumflex artery (5×5 cm) was excised and prepared for myocyte isolation. The region of the left ventricular free wall comprising the left anterior descending artery (3×5 cm) was cannulated and prepared for perfusion fixation.
Myocytes were isolated from the LV free wall as follows. The left circumflex coronary artery was perfused with a collagenase solution (0.5 mg/mL, Worthington, type II; 146 U/mg) for 35 minutes. The tissue was then minced into 2 mm sections and gently agitated. After 15 minutes, the supernatant was removed, filtered, and the cells allowed to settle. The myocyte pellet (5×10^4 cells/mL) was then resuspended in standard cell culture media (M199, Gibco Laboratories, Grand Island, N.Y.). […] Viable myocytes were defined as those cells which retained a rod shape, were calcium tolerant, responded to electrical stimulation, and excluded trypan blue. Isolated myocyte function was examined using a thermostatically controlled chamber (37° C.) containing a volume of 2.5 mL and two stimulating platinum electrodes to image the isolated myocytes on an inverted microscope (Axiovert IM35, Zeiss Inc., Germany). A 20× long working distance Hoffmann Modulation Contrast objective (Modulation Optics Inc., Greenvale, N.Y.) was used to image the myocytes. Myocyte contractions were elicited by field stimulating the tissue chamber at 1 Hz (S11, Grass Instruments, Quincy, Mass.) using current pulses of 5 msec duration and voltages 10% above contraction threshold. Myocyte motion signals were captured and input through an edge detector system (Crescent Electronics, Sandy, Utah). The distance between the left and right myocyte edges was converted into a voltage signal, digitized, and input to a computer (80386; ZBV2526, Zenith Data Systems, St. Joseph, Mich.) for analysis. Parameters computed from the digitized contraction profiles include percent shortening, velocity of shortening, velocity of relengthening, time to peak contraction, and duration of contraction.
Indices of LV and myocyte function were compared between the three treatment groups using multi-way analysis of variance (ANOVA). For comparisons of LV function with each week of pacing, an ANOVA for repeated measures was used. […] For comparisons of neurohormonal profiles, the Student-Neuman-Kuells test was employed. The categorical scores obtained from the histomorphometric studies were compared between groups using the Chi-Square analysis. All statistical procedures were performed using the BMDP statistical software package (BMDP Statistical Software Inc., Los Angeles, Calif.). […] Values of p<0.05 were considered to be statistically significant.

Q: Which results are given for `CC(C)C(NS(=O)(=O)c1ccc(-c2ccc(Br)cc2)cc1)C(=O)O` (stereo not drawn) [Compound A, 2-(4'-bromobiphenyl-4-sulfonylamino)-3-methylbutyric acid]?
A: reduction in activity against the catalytic domain of stromelysin [1]: ~50%; End-Diastolic Dimension [2]: 4.7 ± 0.2 cm; Fractional Shortening [2]: 26 ± 3%; Heart Rate [2]: 149 ± 3 bpm; Mean Arterial Pressure [2]: 83 ± 2 mmHg; Peak Wall Stress [2]: 185 ± 11 g/cm^2; Vcf (velocity of circumferential fiber shortening) [2]: 1.4 ± 0.2 s⁻¹; Vcfc (velocity of circumferential fiber shortening corrected for heart rate) [2]: 2.3 ± 0.2 s⁻¹; Wall Thickness [2]: 0.80 ± 0.22 CM; Percent Shortening (isolated LV myocytes; 7 mM calcium): 5.6 ± 0.5%; Relengthening Velocity (isolated LV myocytes; 7 mM calcium): 78 ± 5 μm/s; Resting Length (isolated LV myocytes; 7 mM calcium): 156 ± 5 μm; Shortening Velocity (isolated LV myocytes; 7 mM calcium): 84 ± 7 μm/s; Time to 50% Relaxation (isolated LV myocytes; 7 mM calcium): 102 ± 5 ms; Time to Peak Contraction (isolated LV myocytes; 7 mM calcium): 240 ± 3 ms; Total Duration (isolated LV myocytes; 7 mM calcium): 476 ± 10 ms; Percent Shortening (isolated LV myocytes; […] nM isoproterenol): 5.1 ± 0.5%; Relengthening Velocity (isolated LV myocytes; […] nM isoproterenol): 80 ± 11 μm/s; Resting Length (isolated LV myocytes; […] nM isoproterenol): 161 ± 3 μm; Shortening Velocity (isolated LV myocytes; […] nM isoproterenol): 108 ± 11 μm/s; Time to 50% Relaxation (isolated LV myocytes; […] nM isoproterenol): 104 ± 6 ms; Time to Peak Contraction (isolated LV myocytes; […] nM isoproterenol): 175 ± 2 ms; Total Duration (isolated LV myocytes; […] nM isoproterenol): 433 ± 12 ms; Percent Shortening (isolated LV myocytes; baseline): 2.2 ± 0.1%; Relengthening Velocity (isolated LV myocytes; baseline): 26 ± 2 μm/s; Resting Length (isolated LV myocytes; baseline): 169 ± 4 μm; Shortening Velocity (isolated LV myocytes; baseline): 31 ± 2 μm/s; Time to 50% Relaxation (isolated LV myocytes; baseline): 131 ± 5 ms; Time to Peak Contraction (isolated LV myocytes; baseline): 244 ± 7 ms; Total Duration (isolated LV myocytes; baseline): 498 ± 9 ms
